Measured values taken from patent US20240132431A1, “METHOD FOR ALKYLATING ACIDIC FUNCTIONAL GROUP” (Chugai Seiyaku Kabushiki Kaisha, priority 2021, published 2024).

Molecular target: T1, Bcl-2 protein (Recombinant Human Bcl-2 Protein) (Homo sapiens, UniProt P10415)
T1 construct: purchased Novus NBP2-34889
Experiment: Binding evaluation of mixture library compounds to Bcl-2 using AS-MS (affinity selection mass spectrometry)
Settings: for ASMS ratio (%) n = 1 / ASMS ratio (%) n = 2: AS-MS on the mixture of 1200 library compounds, ASMS Ratio(%)=(A−C)/B×100; for ASMS ratio (%) n = 1: replicate n = 1; for ASMS ratio (%) n = 2: replicate n = 2
In short: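 ASMS Ratio (%) was calculated as (A−C)/B×100, where A is the protein sample after SEC, B the protein-free sample without SEC and C the protein-free sample after SEC. Each compound was at […] in a 1200-member pool with 20 μM Bcl-2, incubated 1 h at 23° C.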

T1 sequence (P10415 whole entry): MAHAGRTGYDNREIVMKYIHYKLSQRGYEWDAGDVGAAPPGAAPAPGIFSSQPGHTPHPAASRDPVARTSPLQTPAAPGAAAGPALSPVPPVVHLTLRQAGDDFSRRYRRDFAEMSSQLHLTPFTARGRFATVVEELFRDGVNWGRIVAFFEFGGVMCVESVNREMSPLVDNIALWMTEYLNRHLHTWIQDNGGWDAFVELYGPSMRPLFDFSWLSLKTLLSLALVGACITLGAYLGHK

SMILES | ASMS ratio (%) (n = 1) | ASMS ratio (%) (n = 2) | ASMS ratio (%) n = 1 [%] | ASMS ratio (%) n = 2 [%]
CCOc1cccc(-c2cc(CN3CCN(c4ccc(C(=O)NS(=O)(=O)c5ccc(NCCSc6ccccc6)c(C(F)(F)F)c5)nn4)CC3)cc(OC(C)C)c2)c1 [B2R083-01, 6-[4-[[3-(3-Ethoxyphenyl)-5-propan-2-yloxyphenyl]methyl]piperazin-1-yl]-N-[4-(2-phenylsulfanylethylamino)-3-(trifluoromethyl)phenyl]sulfonylpyridazine-3-carboxamide] | 31.9 | −11.1 | – | –
CCOc1cncc(-c2cc(OC)c(CN3CCN(c4ccc(C(=O)NS(=O)(=O)c5ccc(NCCSc6ccccc6)c(C(F)(F)F)c5)nn4)CC3)c(OC)c2)c1 [B2R086-01] | 0.0 | 0.0 | – | –
CCOc1cccc(-c2cc(CN3CCN(c4ccc(C(=O)NS(=O)(=O)c5ccc(NCCSc6ccccc6)c(C(F)(F)F)c5)nn4)CC3)cc(C(F)(F)F)c2)c1 [B2R087-01, 6-[4-[[3-(3-Ethoxyphenyl)-5-(trifluoromethyl)phenyl]methyl]piperazin-1-yl]-N-[4-(2-phenylsulfanylethylamino)-3-(trifluoromethyl)phenyl]sulfonylpyridazine-3-carboxamide] | 3.8 | 7.1 | – | –
CCOc1cncc(-c2cc(CN3CCN(c4ccc(C(=O)NS(=O)(=O)c5ccc(NCCSc6ccccc6)c(C(F)(F)F)c5)nn4)CC3)cc(C(F)(F)F)c2)c1 [B2R088-01, 6-[4-[[3-(5-Ethoxypyridin-3-yl)-5-(trifluoromethyl)phenyl]methyl]piperazin-1-yl]-N-[4-(2-phenylsulfanylethylamino)-3-(trifluoromethyl)phenyl]sulfonylpyridazine-3-carboxamide] | 35.3 | 13.1 | – | –
CCOc1cccc(-c2cc(CN3CCN(c4ccc(C(=O)NS(=O)(=O)c5ccc(NCCSc6ccccc6)c(C(F)(F)F)c5)nn4)CC3)cc(OC(F)(F)F)c2)c1 [B2R089-01] | 3.4 | −9.2 | – | –
CCOc1cncc(-c2cc(CN3CCN(c4ccc(C(=O)NS(=O)(=O)c5ccc(NCCSc6ccccc6)c(C(F)(F)F)c5)nn4)CC3)cc(OC(F)(F)F)c2)c1 [B2R090-01, 6-[4-[[3-(5-Ethoxypyridin-3-yl)-5-(trifluoromethoxy)phenyl]methyl]piperazin-1-yl]-N-[4-(2-phenylsulfanylethylamino)-3-(trifluoromethyl)phenyl]sulfonylpyridazine-3-carboxamide] | 22.4 | 5.3 | – | –
CCOc1cccc(-c2ccc(CN3CCN(c4ccc(C(=O)NS(=O)(=O)c5ccc(NCCSc6ccccc6)c(C(F)(F)F)c5)nn4)CC3)c3ccccc23)c1 [B2R091-01, 6-[4-[[4-(3-Ethoxyphenyl)naphthalen-1-yl]methyl]piperazin-1-yl]-N-[4-(2-phenylsulfanylethylamino)-3-(trifluoromethyl)phenyl]sulfonylpyridazine-3-carboxamide] | −3.5 | 1.8 | – | –
CCOc1cncc(-c2ccc(CN3CCN(c4ccc(C(=O)NS(=O)(=O)c5ccc(NCCSc6ccccc6)c(C(F)(F)F)c5)nn4)CC3)c3ccccc23)c1 [B2R092-01, 6-[4-[[4-(5-Ethoxypyridin-3-yl)naphthalen-1-yl]methyl]piperazin-1-yl]-N-[4-(2-phenylsulfanylethylamino)-3-(trifluoromethyl)phenyl]sulfonylpyridazine-3-carboxamide] | 16.0 | −1.3 | – | –
CCOc1cccc(-c2csc(CN3CCN(c4ccc(C(=O)NS(=O)(=O)c5ccc(NCCSc6ccccc6)c(C(F)(F)F)c5)nn4)CC3)c2)c1 [B2R093-01, 6-[4-[[4-(3-Ethoxyphenyl)thiophen-2-yl]methyl]piperazin-1-yl]-N-[4-(2-phenylsulfanylethylamino)-3-(trifluoromethyl)phenyl]sulfonylpyridazine-3-carboxamide] | 56.5 | 0.0 | – | –
CCOc1cncc(-c2csc(CN3CCN(c4ccc(C(=O)NS(=O)(=O)c5ccc(NCCSc6ccccc6)c(C(F)(F)F)c5)nn4)CC3)c2)c1 [B2R094-01, 6-[4-[[4-(5-Ethoxypyridin-3-yl)thiophen-2-yl]methyl]piperazin-1-yl]-N-[4-(2-phenylsulfanylethylamino)-3-(trifluoromethyl)phenyl]sulfonylpyridazine-3-carboxamide] | 18.8 | 11.9 | – | –
CCOc1cccc(C#Cc2ccccc2CN2CCN(c3ccc(C(=O)NS(=O)(=O)c4ccc(NCCSc5ccccc5)c(C(F)(F)F)c4)nn3)CC2)c1 [B2R095-01, 6-[4-[[2-[2-(3-Ethoxyphenyl)ethynyl]phenyl]methyl]piperazin-1-yl]-N-[4-(2-phenylsulfanylethylamino)-3-(trifluoromethyl)phenyl]sulfonylpyridazine-3-carboxamide] | 42.2 | 5.5 | – | –
CCOc1cccc(-c2ccc(C(C)N3CCN(c4ccc(C(=O)NS(=O)(=O)c5ccc(NCCSc6ccccc6)c(C(F)(F)F)c5)cc4)CC3)cc2)c1 (stereo not shown) [B2R097-01, 4-[4-[1-[4-(3-Ethoxyphenyl)phenyl]ethyl]piperazin-1-yl]-N-[4-(2-phenylsulfanylethylamino)-3-(trifluoromethyl)phenyl]sulfonylbenzamide] | 6.6 | −7.8 | – | –
CCOc1cncc(-c2ccc(C(C)N3CCN(c4ccc(C(=O)NS(=O)(=O)c5ccc(NCCSc6ccccc6)c(C(F)(F)F)c5)cc4)CC3)cc2)c1 (stereo not shown) [B2R098-01, 4-[4-[1-[4-(5-Ethoxypyridin-3-yl)phenyl]ethyl]piperazin-1-yl]-N-[4-(2-phenylsulfanylethylamino)-3-(trifluoromethyl)phenyl]sulfonylbenzamide] | 9.2 | 7.5 | – | –
CCOc1cccc(-c2csc(C(=O)N3CCN(c4ccc(C(=O)N(C)CC56CC7CC(CC(C7)C5)C6)nn4)CC3)c2)c1 [B3A001-01, N-(1-Adamantylmethyl)-6-[4-[4-(3-ethoxyphenyl)thiophene-2-carbonyl]piperazin-1-yl]-N-methylpyridazine-3-carboxamide] | – | – | 0.0 | −8.4
CCOc1cncc(-c2csc(C(=O)N3CCN(c4ccc(C(=O)N(C)CC56CC7CC(CC(C7)C5)C6)nn4)CC3)c2)c1 [B3A002-01, N-(1-Adamantylmethyl)-6-[4-[4-(5-ethoxypyridin-3-yl)thiophene-2-carbonyl]piperazin-1-yl]-N-methylpyridazine-3-carboxamide] | – | – | 1.9 | −1.2
CCOc1cccc(-c2ccc(C(=O)N3CCN(c4ccc(C(=O)N(C)CC56CC7CC(CC(C7)C5)C6)nn4)CC3)cc2C)c1 [B3A003-01, N-(1-Adamantylmethyl)-6-[4-[4-(3-ethoxyphenyl)-3-methylbenzoyl]piperazin-1-yl]-N-methylpyridazine-3-carboxamide] | – | – | 6.5 | 4.9
CCOc1cncc(-c2ccc(C(=O)N3CCN(c4ccc(C(=O)N(C)CC56CC7CC(CC(C7)C5)C6)nn4)CC3)cc2C)c1 [B3A004-01, N-(1-Adamantylmethyl)-6-[4-[4-(5-ethoxypyridin-3-yl)-3-methylbenzoyl]piperazin-1-yl]-N-methylpyridazine-3-carboxamide] | – | – | 3.5 | −0.5
